{"source": "PubChem BioAssay AID743087", "about": "(Broad Institute, 2013)", "note": "The source made the active and inactive calls.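 Rule for the calls: active = IC50 below 100 nM in HeLa cells, the median call across repeat tests; inactive = IC50 above 100 nM in HeLa cells.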", "data": [{"test_system": "not listed separately", "test": "HeLa cell killing, TP53 mutant line, dose response, CellTiter-Glo luminescence, dry powder (AID 743087)", "settings": "HeLa viability, CellTiter-Glo luminescence, 48 h", "values": [{"smiles": "CCN(CC)c1ccc(-c2nc(C(C)C)no2)cc1[N+](=O)[O-]", "outcome": "inactive"}]}, {"test_system": "HeLa viability, CellTiter-Glo luminescence, 48 h", "test": "HeLa cell killing, TP53 mutant line, dose response, CellTiter-Glo luminescence, dry powder (AID 743087)", "settings": "not given", "values": [{"smiles": "C[C@@H]1CC(=O)NN=C1c1ccc(C2=CCCCC2)cc1", "IC50": "2.22 nM"}, {"smiles": "CC1CC(=O)NN=C1c1ccc(F)c(F)c1", "note": "(configuration not stated)", "IC50": "64.1 nM"}, {"smiles": "CCN(CC)c1ccc(C2=NNC(=O)CC2C)cc1NCCOCCOCCNC(=O)OC(C)(C)C", "note": "(configuration not stated)", "IC50": "> 1000 nM (inactive)"}, {"smiles": "C/C=C/c1ccc(C2=NNC(=O)C[C@H]2C)cc1", "IC50": "8.73 nM"}, {"smiles": "C[C@@H]1CC(=O)NN=C1c1ccc(-n2cnnc2)cc1", "IC50": "> 1000 nM (inactive)"}, {"smiles": "C[C@@H]1CC(=O)NN=C1c1ccc(N2CCCCS2(=O)=O)cc1", "IC50": "478 nM (inactive)"}, {"smiles": "CC1(C)C(=O)NN=C1c1ccc(N)cc1", "IC50": "> 1000 nM (inactive)"}, {"smiles": "O=C1C[C@H]2CCc3cc(N4CCOCC4)ccc3C2=NN1", "note": "(racemic)", "IC50": "> 1000 nM (inactive)"}, {"smiles": "CC(=O)N1CCN(c2ccc(C3=NNC(=O)CC3C)cc2F)CC1", "note": "(configuration not stated)", "IC50": "> 1000 nM (inactive)"}, {"smiles": "C[C@H]1CC(=O)NN=C1c1ccc(F)c(F)c1", "IC50": "> 1000 nM (inactive)"}, {"smiles": "C[C@@H]1CC(=O)NN=C1c1ccc(N2CCCOC2=O)cc1", "IC50": "> 1000 nM (inactive)"}, {"smiles": "CCNc1ccc(C2=NNC(=O)C[C@H]2C)cc1[N+](=O)[O-]", "IC50": "1.08 nM"}, {"smiles": "CC1CC(=O)NN=C1c1cccs1", "note": "(configuration not stated)", "IC50": "> 1000 nM (inactive)"}, {"smiles": "CC(=O)Nc1ccc(C2=NNC(=O)C[C@H]2C)cc1C(C)=O", "IC50": "126 nM (inactive)"}, {"smiles": "Cc1ccc(CCC(=O)N2CCN(c3ccc(C4=NNC(=O)CC4C)cc3)CC2)cc1", "note": "(configuration not stated)", "IC50": "> 1000 nM (inactive)"}, {"smiles": "CCNc1ccc(C2=NNC(=O)C[C@H]2C)cc1", "IC50": "71 nM"}, {"smiles": "C[C@@H]1CC(=O)NN=C1c1ccc(F)cc1", "note": "(racemic)", "IC50": "360 nM (inactive)"}, {"smiles": "CCN(CC)c1ccc(C2=NNC(=O)C2(C)C)cc1", "IC50": "> 1000 nM (inactive)"}, {"smiles": "C[C@@H]1CC(=O)NN=C1c1ccc(C2CCCCC2)cc1", "IC50": "7.59 nM"}, {"smiles": "CCN(CC)c1ccc(-c2n[nH]c(=O)cc2C)cc1", "IC50": "> 1000 nM (inactive)"}, {"smiles": "CC(=O)Nc1ccc(C2=NNC(=O)C[C@H]2C)cc1N", "IC50": "> 1000 nM (inactive)"}, {"smiles": "C[C@@H]1CC(=O)NN=C1c1ccc(N2CCOCC2)cc1", "note": "(racemic)", "IC50": "35.1 nM"}, {"smiles": "CCN(CC)c1ccc(C2=NNC(=O)C[C@H]2C)cc1", "IC50": "3.71 nM"}, {"smiles": "CCCc1ccc(C2=NNC(=O)C[C@H]2C)cc1", "IC50": "16.2 nM"}, {"smiles": "CCN(CC)c1ccc(C2=NNC(=O)C[C@H]2C)cc1[N+](=O)[O-]", "IC50": "> 1000 nM (inactive)"}, {"smiles": "CC1(C)C(=O)NN=C1c1ccc(Cl)cc1", "IC50": "> 1000 nM (inactive)"}, {"smiles": "CCN(CC)c1ccc(C2=NNC(=O)CC2C)cc1N", "note": "(configuration not stated)", "IC50": "232 nM (inactive)"}, {"smiles": "CC(=O)Nc1ccc(C2=NNC(=O)C[C@H]2C)cc1[N+](=O)[O-]", "IC50": "4.78 nM"}, {"smiles": "C[C@@H]1CC(=O)NN=C1c1ccc(N2CCN(C)CC2)cc1", "IC50": "297 nM (inactive)"}, {"smiles": "C[C@@H]1CC(=O)NN=C1c1ccc(N)c(Br)c1", "IC50": "> 1000 nM (inactive)"}, {"smiles": "CCN(CC)c1ccc(C2=NNC(=O)CC2C)cc1", "note": "(configuration not stated)", "IC50": "8.54 nM"}, {"smiles": "C[C@H]1CC(=O)NN=C1c1ccc(N2CCOCC2)c(F)c1", "IC50": "> 1000 nM (inactive)"}, {"smiles": "CC1(C)C(=O)NN=C1c1ccc(N2CCOCC2)cc1", "IC50": "> 1000 nM (inactive)"}, {"smiles": "C[C@@H]1CC(=O)NN=C1c1ccc(N2CCOCC2)cc1", "IC50": "13 nM"}, {"smiles": "C[C@@H]1CC(=O)NN=C1c1ccc(Cl)cc1", "IC50": "32.6 nM"}, {"smiles": "CC(=O)Nc1ccc(C2=NNC(=O)C[C@H]2C)cc1", "IC50": "4.78 nM"}, {"smiles": "C#Cc1cc(C2=NNC(=O)C[C@H]2C)ccc1NC(C)=O", "IC50": "64.6 nM"}, {"smiles": "CC1CC(=O)NN=C1c1ccc(N2CCOCC2)c(F)c1", "note": "(configuration not stated)", "IC50": "2.73 nM"}, {"smiles": "C[C@@H]1CC(=O)NN=C1c1ccc([Si](C)(C)C)cc1", "IC50": "179 nM (inactive)"}, {"smiles": "CCN(CC)c1ccc(C2=NNC(=O)CC2C)cc1NC(C)=O", "note": "(configuration not stated)", "IC50": "> 1000 nM (inactive)"}, {"smiles": "C[C@@H]1CC(=O)NN=C1c1ccccc1", "IC50": "428 nM (inactive)"}, {"smiles": "CCN1N=C(c2ccc(N(CC)CC)cc2)[C@H](C)CC1=O", "IC50": "> 1000 nM (inactive)"}, {"smiles": "C[C@@H]1CC(=O)NN=C1c1ccc(N)c([N+](=O)[O-])c1", "IC50": "> 1000 nM (inactive)"}, {"smiles": "CC1C(=O)NN=C1c1ccc([N+](=O)[O-])cc1", "note": "(configuration not stated)", "IC50": "> 1000 nM (inactive)"}, {"smiles": "CCN(CC)c1ccc(C(=O)Nc2ccccc2)cc1[N+](=O)[O-]", "IC50": "> 1000 nM (inactive)"}, {"smiles": "O=C1CC(c2ccccc2)=NN1", "IC50": "> 1000 nM (inactive)"}, {"smiles": "CC(=O)Nc1ccc(C2=NNC(=O)CC2C)cc1", "note": "(configuration not stated)", "IC50": "> 1000 nM (inactive)"}, {"smiles": "CC(=O)Nc1ccc(C2=NNC(=O)C[C@H]2C)cc1Br", "IC50": "21.4 nM"}, {"smiles": "Cc1cc(=O)[nH]nc1-c1ccc(N)cc1", "IC50": "> 1000 nM (inactive)"}, {"smiles": "C[C@@H]1CC(=O)NN=C1c1ccc(N2CCCCC2)cc1", "IC50": "3.83 nM"}, {"smiles": "C[C@@H]1CC(=O)NN=C1c1ccc(N2CCCCC2=O)cc1", "IC50": "> 1000 nM (inactive)"}, {"smiles": "CC1CC(=O)N(c2ccccc2)N=C1c1ccc(Cl)cc1", "note": "(configuration not stated)", "IC50": "> 1000 nM (inactive)"}, {"smiles": "CC1CC(=O)NN=C1c1ccc(N2CCN(C(=O)Cc3ccc(Cl)cc3Cl)CC2)cc1", "note": "(configuration not stated)", "IC50": "> 1000 nM (inactive)"}, {"smiles": "C[C@@H]1CC(=O)NN=C1c1ccc(N2CCOCC2)c(F)c1", "IC50": "1.58 nM"}, {"smiles": "C[C@@H]1CC(=O)NN=C1c1ccc(F)c(F)c1", "IC50": "22 nM"}, {"smiles": "Cc1nc2ccc(C3=NNC(=O)C[C@H]3C)cc2[nH]1", "IC50": "> 1000 nM (inactive)"}, {"smiles": "CC(=O)Nc1ccc(-c2n[nH]c(=O)cc2C)cc1", "IC50": "> 1000 nM (inactive)"}, {"smiles": "C[C@@H]1CC(=O)NN=C1c1ccc(I)cc1", "IC50": "7.02 nM"}, {"smiles": "C[C@@H]1CC(=O)NN=C1c1ccc(N2CCCC2=O)cc1", "IC50": "133 nM (inactive)"}, {"smiles": "C[C@@H]1CC(=O)NN=C1c1ccc(-c2cncnc2)cc1", "IC50": "12.6 nM"}, {"smiles": "CC1(C)C(=O)NN=C1c1ccc([N+](=O)[O-])cc1", "IC50": "> 1000 nM (inactive)"}]}]}
